Test in all cases: NCI tumour cell line growth inhibition, 48 h
Experiment [1] concerns 786-0 renal.
Experiment [2] has as its system CCRF-CEM leukemia.
Experiment [3] relates to EKVX NSCLC.
The test system of experiment [4] is HCT-116 colon.
In experiment [5] the test system is IGROV1 ovarian.
In experiment [6] the test system is MDA-MB-435.
Experiment [7] concerns NCI-H23 lung.
Experiment [8] relates to NCI/ADR-RES ovarian.
For experiment [9], the system named is SK-MEL-2 melanoma.
The subject of experiment [10] is SN12C renal.
Experiment [11] relates to U251 CNS.

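All cell lines were grown in 96-well plates and treated with compound for 48 hours. At the TGI there is no net growth.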 Where only a bound is given, the exact number is not on record here.

On to `Cc1cc(C)c(S(=O)(=O)N(CCCN)OCCON(CCCN)S(=O)(=O)c2c(C)cc(C)cc2C)c(C)c1`, for which the TGI in [1] is 13.1 µM; in experiment [2] it was above 24.9 µM; in experiment [3], 20.6 µM; in [4], 5.1 µM; in experiment [5] it was 4.67 µM; in experiment [6] it was above 23.6 µM. Moreover, the TGI in experiment [7] is 7.11 µM; in experiment [8] it was 46.6 µM; in experiment [9], 3.24 µM; in [10] it was above 100 µM; in experiment [11], above 100 µM.
Regarding `CCOC(=O)C1=CNC(C(=O)OCC)C1c1cccn1-c1ccccc1` (centres undefined), the TGI in [1] was above 100 µM; in experiment [2], 77 µM; in experiment [3] it was above 100 µM; in experiment [4], 58.6 µM; in experiment [5], above 100 µM; in experiment [6], 57.6 µM. In addition, the TGI in [7] is above 100 µM; in [8] it was 91.4 µM; in [9], 37.2 µM; in experiment [10] it was above 100 µM; in [11], above 100 µM.
For `COC(=O)CC(CNC(=O)OCc1ccccc1)OCc1ccc(OC)cc1` (centres undefined), the TGI in [1], in experiment [2], in [3], in [4], in experiment [5] and in experiment [6] was above 100 µM in each case. In addition, the TGI in experiment [7], in experiment [8], in experiment [9], in [10] and in experiment [11] was above 100 µM each time.
Regarding `C=C(CCC/C(C)=C/C=C/[C@H](C)CCCc1ccoc1)C[C@@H]1OC(=O)[C@H](C)[C@@H]1O`, the TGI in experiment [1] was 27.4 µM; in experiment [2], 33.6 µM; in experiment [3] it was 21 µM; in experiment [4], 42.4 µM; in [5] it was 24.6 µM; in experiment [6], 18.5 µM. Moreover, the TGI was found to be 18.2 µM in [7]; 22.5 µM in experiment [8]; 17.8 µM in [9]; 17.7 µM in [10]; 24.3 µM in [11].
With `COc1ccc2c(c1)-c1nc(=O)n(CCCN(C)C)c3ccc([N+](=O)[O-])c(c13)N2`, the TGI in experiment [1] is 1.94 µM; in [2] it was 3.87 µM; in [3], 6.45 µM; in [4] it was 12.8 µM; in experiment [5] it was 12.3 µM; in experiment [6], 32.2 µM. The TGI in experiment [7] was found to be 4.5 µM; in [8], 10.4 µM; in [9], 27.6 µM; in [10], 13.8 µM; in experiment [11], 9.03 µM.
As to `COc1ccc(-n2c(Cn3nnc(-c4cccnc4)n3)nn(C3OC(COC(=O)c4ccccc4)C(OC(=O)c4ccccc4)C3OC(=O)c3ccccc3)c2=S)cc1` (centres undefined), the TGI in experiment [1], in experiment [2], in experiment [3], in experiment [4], in [5] and in experiment [6] was above 100 µM throughout. Also, the TGI in [7], in experiment [8], in experiment [9], in experiment [10] and in [11] was above 100 µM throughout.
On to `Cc1cnc2c(c1)C(=O)N(c1ccc([N+](=O)[O-])cc1)S2(=O)=O`, for which the TGI in experiment [1], in experiment [2], in experiment [3], in [4], in experiment [5] and in experiment [6] was above 100 µM throughout. The TGI in experiment [7], in [8], in experiment [9], in experiment [10] and in experiment [11] was above 100 µM throughout.
With `CO[C@H]1O[C@@H]2OC3(C)CCC4[C@H](C)CCC([C@H]1C)[C@]42OO3` (some centres undefined), the TGI in experiment [1], in [2], in [3], in experiment [4], in experiment [5] and in [6] was above 100 µM throughout. Besides, the TGI in experiment [7], in experiment [8], in experiment [9], in [10] and in [11] was above 100 µM throughout.
In the case of `O=C1CCSc2nc(-c3ccc4c(c3)OCO4)nn21`, the TGI in [1], in [2], in [3], in experiment [4], in experiment [5] and in experiment [6] was above 10 µM each time. The TGI in experiment [7], in experiment [8], in [9], in experiment [10] and in experiment [11] was above 10 µM each time.
As for `O=C(NCCc1ccccc1)c1cc(/C=C/c2cc(O)ccc2O)ccc1O`, the TGI is 6.18 µM in [1]; above 40.3 µM in experiment [2]; 8.24 µM in experiment [3]; 4.19 µM in experiment [4]; 11.3 µM in [5]; 25.8 µM in experiment [6]. For the same molecule, the TGI is 17.7 µM in experiment [7]; above 34.2 µM in [8]; 11.8 µM in [9]; 19 µM in [10]; 5.28 µM in experiment [11].
Regarding `O=C1CCN2C(=N1)Sc1ccccc12`, the TGI in experiment [1], in experiment [2], in [3], in experiment [4], in experiment [5] and in experiment [6] was above 100 µM each time. The TGI in experiment [7], in experiment [8], in [9], in [10] and in [11] was above 100 µM throughout.
For `CC[C@@H]1CC[C@@H]2[C@H](CC[C@]3(C)[C@@H](OC(C)=O)CC[C@@H]23)[C@H]1C(=O)OC`, the TGI in [1] came to 47.3 µM; in experiment [2] it was 47.9 µM; in [3], 58.6 µM; in [4], 33.7 µM; in experiment [5], 89.8 µM; in [6], 41.9 µM. In addition, the TGI in experiment [7] was 59.6 µM; in experiment [8], 68.5 µM; in experiment [9] it was 39.2 µM; in experiment [10], 69.9 µM; in experiment [11] it was 43.3 µM.
As for `COc1cc2cc3c4cc(OC)c(OC)cc4cc[n+]3c(C)c2cc1OC`, the TGI in experiment [1] was 37.9 µM; in [2], above 100 µM; in experiment [3], above 100 µM; in experiment [4], above 100 µM; in experiment [5] it was above 100 µM; in experiment [6] it was above 100 µM. For the same molecule, the TGI in experiment [7], in experiment [8], in experiment [9], in [10] and in experiment [11] was above 100 µM in each case.
As for `CCC(c1ccc(OC)cc1)C1NC(=S)NC1=O` (centres undefined), the TGI in experiment [1], in experiment [2], in [3], in experiment [4], in experiment [5] and in experiment [6] was above 50 µM in each case. For the same molecule, the TGI in experiment [7], in experiment [8], in [9], in experiment [10] and in experiment [11] was above 50 µM in each case.
With `Cc1c2ccccc2c(C2C3C(=O)N(c4cccc5ccccc45)C(=O)C3ON2Cc2ccc(CC(N)=O)cc2)c2ccccc12` (centres undefined), the TGI in experiment [1] is above 50 µM; in experiment [2] it was above 50 µM; in [3], 48.9 µM; in [4], above 50 µM; in experiment [5], above 50 µM; in experiment [6], above 50 µM. The TGI was above 50 µM in experiment [7]; above 50 µM in experiment [8]; 31.3 µM in [9]; above 50 µM in experiment [10]; above 50 µM in experiment [11].
For `S=C(Nc1ccc2c(c1)oc1ccccc12)c1cccs1`, the TGI in [1] was 68.9 µM; in experiment [2] it was above 100 µM; in experiment [3] it was above 100 µM; in experiment [4], above 100 µM; in [5], above 100 µM; in experiment [6], above 100 µM. Moreover, the TGI in experiment [7], in [8], in [9], in experiment [10] and in [11] was above 100 µM in each case.
With `O=C(CCc1ccc(O)c(O)c1)NCCc1cc(O)c(O)c(O)c1`, the TGI in [1] is 32.6 µM; in [2], above 100 µM; in experiment [3] it was 53 µM; in experiment [4], 33 µM; in experiment [5] it was above 100 µM; in experiment [6], 31.8 µM. The TGI in experiment [7] stood at 31.3 µM; in experiment [8], 40.9 µM; in experiment [9], 50.6 µM; in [10], 31.9 µM; in [11], 31.7 µM.
On to `CCCNCC(O)CNc1ccc(NCC(O)CNCCC)c2c1C(=O)c1ccccc1C2=O` (centres undefined), for which the TGI in experiment [1] stood at 8.21 µM; in experiment [2] it was 4.35 µM; in experiment [3] it was 20.1 µM; in [4], 8.31 µM; in experiment [5] it was 7.87 µM; in experiment [6] it was 10.5 µM. The TGI in [7] is 12.2 µM; in experiment [8] it was above 75 µM; in [9], 5.22 µM; in experiment [10] it was 7.67 µM; in experiment [11], 9.02 µM.
In the case of `COC(=O)c1ccc(C)cc1C1CN=NC12Cc1cc(C)ccc1C2=O` (centres undefined), the TGI is above 92.6 µM in experiment [1]; above 100 µM in [2]; above 95.5 µM in experiment [3]; 28.6 µM in experiment [4]; above 100 µM in experiment [5]; 6.12 µM in [6]. The TGI in experiment [7] is 66.5 µM; in experiment [8], 47.5 µM; in [9], 45.8 µM; in experiment [10], above 87.1 µM; in experiment [11], above 70.6 µM.
Regarding `OCC1OC(n2cnc3c(SCc4ccccc4)ncnc32)C(O)C1O` (centres undefined), the TGI in [1] was above 100 µM; in experiment [2] it was 3.55 µM; in [3] it was above 100 µM; in experiment [4], above 100 µM; in experiment [5] it was above 100 µM; in [6] it was above 100 µM. The TGI in [7], in [8], in [9], in [10] and in experiment [11] was above 100 µM throughout.
`COCC12CCC(OC)C34C5CC6(O)C(OC)C=C(C5C6OC(=O)c5ccccc5)C(C(OC)C13)C4N(C)C2` (centres undefined): the TGI in experiment [1], in experiment [2], in experiment [3], in experiment [4], in [5] and in experiment [6] was above 100 µM in each case. Further, the TGI in experiment [7], in experiment [8], in [9], in [10] and in experiment [11] was above 100 µM each time.
Turning to `Cn1nc(-c2ccccc2)c2c(-c3ccccc3)c3cc(Cl)ccc3nc21`, the TGI in [1], in [2], in [3], in experiment [4], in [5] and in experiment [6] was above 100 µM in each case. In addition, the TGI in [7] was above 100 µM; in experiment [8] it was above 25.7 µM; in [9], above 100 µM; in experiment [10], above 100 µM; in [11], above 100 µM.
Regarding `CCCn1c(=O)c2nn3c(=O)n(CCC)c(=O)c3nn2c1=O`, the TGI in experiment [1], in [2], in experiment [3], in [4], in experiment [5] and in [6] was above 100 µM each time. In addition, the TGI in experiment [7], in experiment [8], in experiment [9], in [10] and in experiment [11] was above 100 µM throughout.
`Nc1nc(Br)nc2ncn(C3CC(O)C(CO)O3)c12` (centres undefined): the TGI in experiment [1], in [2], in [3], in [4], in experiment [5] and in [6] was above 100 µM in each case. Besides, the TGI in experiment [7] was above 53 µM; in experiment [8] it was above 63.1 µM; in experiment [9], above 100 µM; in [10], above 100 µM; in experiment [11] it was above 100 µM.
